The supplement of paper PMC10307832

Legend:
Experiment in all cases: relative viability (nuclei count vs DMSO), 5 days (fraction); higher = more cells survive
[1] = tested on: NCI-H3122
In short: (§1)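 One day after seeding in 1536-well plates, lung cancer cell lines were dosed by pin tool. Dosing was either single-drug or a fixed anchor-drug dose plus five library-drug doses (not always all listed) in √10 steps. After 5 days, nuclei were stained in one fix-and-stain step and counted on 4× images, and relative viability is the nuclei count of treated wells over that of vehicle wells, given as the median of duplicate plates.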

[2] = tested on: HCC-366
In short: as §1

[3] = tested on: NCI-H661
In short: as §1

[4] = tested on: NCI-H727
In short: as §1

[5] = tested on: COR-L 105
In short: as §1

[6] = tested on: PC-14
In short: as §1

[7] = tested on: NCI-H441
In short: as §1

[8] = tested on: NCI-H1437
In short: as §1

[9] = tested on: HARA
In short: as §1

[10] = tested on: NCI-H460
In short: as §1

[11] = tested on: EKVX
In short: as §1

[12] = tested on: NCI-H1666
In short: as §1

[13] = tested on: CAL-12T
In short: as §1

[14] = tested on: 201T
In short: as §1

[15] = tested on: ABC-1
In short: as §1

[16] = tested on: NCI-H1650
In short: as §1

[17] = tested on: LOU-NH91
In short: as §1

[18] = tested on: NCI-H2009
In short: as §1

[19] = tested on: BEN
In short: as §1

## Cc1sc2c(c1C)C(c1ccc(Cl)cc1)=N[C@@H](CC(=O)OC(C)(C)C)c1nnc(C)n1-2 [JQ1] + CC(C)C[C@H](NC(=O)[C@H](Cc1ccccc1)NC(=O)c1cnccn1)B(O)O [Bortezomib] (partner 0.002 µM)
[1]; first compound 0.04 µM
  relative viability: 1.01
[1]; first compound 0.1265 µM
  relative viability: 0.998
[1]; first compound 0.4 µM
  relative viability: 1.03
[1]; first compound 1.265 µM
  relative viability: 0.996
[1]; first compound 4 µM
  relative viability: 0.905
[2]; first compound 0.04 µM
  relative viability: 1.08
[2]; first compound 0.4 µM
  relative viability: 1.03
[2]; first compound 1.265 µM
  relative viability: 0.585
[2]; first compound 4 µM
  relative viability: 0.23
[3]; first compound 0.04 µM
  relative viability: 0.783
[3]; first compound 0.1265 µM
  relative viability: 0.83
[3]; first compound 0.4 µM
  relative viability: 0.576
[3]; first compound 1.265 µM
  relative viability: 0.431
[3]; first compound 4 µM
  relative viability: 0.537
[4]; first compound 0.04 µM
  relative viability: 0.756
[4]; first compound 0.1265 µM
  relative viability: 1.01
[4]; first compound 0.4 µM
  relative viability: 0.588
[4]; first compound 1.265 µM
  relative viability: 0.38
[4]; first compound 4 µM
  relative viability: 0.395
[5]; first compound 0.04 µM
  relative viability: 0.584
[5]; first compound 0.1265 µM
  relative viability: 0.348
[5]; first compound 0.4 µM
  relative viability: 0.3
[5]; first compound 1.265 µM
  relative viability: 0.292
[5]; first compound 4 µM
  relative viability: 0.342
[6]; first compound 0.04 µM
  relative viability: 0.811
[6]; first compound 0.1265 µM
  relative viability: 0.901
[6]; first compound 0.4 µM
  relative viability: 0.888
[6]; first compound 1.265 µM
  relative viability: 0.346
[6]; first compound 4 µM
  relative viability: 0.201
[7]; first compound 0.04 µM
  relative viability: 0.611
[7]; first compound 0.1265 µM
  relative viability: 0.363
[7]; first compound 0.4 µM
  relative viability: 0.443
[7]; first compound 1.265 µM
  relative viability: 0.189
[7]; first compound 4 µM
  relative viability: 0.174
[8]; first compound 0.04 µM
  relative viability: 0.42
[8]; first compound 0.1265 µM
  relative viability: 0.369
[8]; first compound 0.4 µM
  relative viability: 0.276
[8]; first compound 1.265 µM
  relative viability: 0.228
[8]; first compound 4 µM
  relative viability: 0.194
[9]; first compound 0.04 µM
  relative viability: 1.08
[9]; first compound 0.1265 µM
  relative viability: 0.725
[9]; first compound 0.4 µM
  relative viability: 0.611
[9]; first compound 1.265 µM
  relative viability: 0.433
[9]; first compound 4 µM
  relative viability: 0.173
[10]; first compound 0.04 µM
  relative viability: 1.05
[10]; first compound 0.1265 µM
  relative viability: 0.611
[10]; first compound 0.4 µM
  relative viability: 0.456
[10]; first compound 1.265 µM
  relative viability: 0.224
[10]; first compound 4 µM
  relative viability: 0.212
[11]; first compound 0.04 µM
  relative viability: 0.981
[11]; first compound 0.1265 µM
  relative viability: 0.842
[11]; first compound 0.4 µM
  relative viability: 1.16
[11]; first compound 1.265 µM
  relative viability: 0.749
[11]; first compound 4 µM
  relative viability: 0.704
[12]; first compound 0.04 µM
  relative viability: 0.658
[12]; first compound 0.1265 µM
  relative viability: 0.698
[12]; first compound 0.4 µM
  relative viability: 0.543
[12]; first compound 1.265 µM
  relative viability: 0.428
[12]; first compound 4 µM
  relative viability: 0.443
[13]; first compound 0.04 µM
  relative viability: 1.06
[13]; first compound 0.4 µM
  relative viability: 0.638
[13]; first compound 1.265 µM
  relative viability: 0.415
[13]; first compound 4 µM
  relative viability: 0.317
[14]; first compound 0.04 µM
  relative viability: 1.14
[14]; first compound 0.1265 µM
  relative viability: 0.643
[14]; first compound 0.4 µM
  relative viability: 1.02
[14]; first compound 1.265 µM
  relative viability: 0.859
[14]; first compound 4 µM
  relative viability: 0.768
[15]; first compound 0.04 µM
  relative viability: 0.306
[15]; first compound 0.1265 µM
  relative viability: 0.233
[15]; first compound 0.4 µM
  relative viability: 0.329
[15]; first compound 1.265 µM
  relative viability: 0.332
[15]; first compound 4 µM
  relative viability: 0.272
[16]; first compound 0.04 µM
  relative viability: 0.177
[16]; first compound 0.1265 µM
  relative viability: 0.191
[16]; first compound 0.4 µM
  relative viability: 0.187
[16]; first compound 1.265 µM
  relative viability: 0.175
[16]; first compound 4 µM
  relative viability: 0.208
[17]; first compound 0.04 µM
  relative viability: 0.525
[17]; first compound 0.1265 µM
  relative viability: 0.476
[17]; first compound 0.4 µM
  relative viability: 0.428
[17]; first compound 1.265 µM
  relative viability: 0.3
[17]; first compound 4 µM
  relative viability: 0.327
[18]; first compound 0.04 µM
  relative viability: 0.947
[18]; first compound 0.1265 µM
  relative viability: 0.526
[18]; first compound 0.4 µM
  relative viability: 0.262
[18]; first compound 1.265 µM
  relative viability: 0.172
[18]; first compound 4 µM
  relative viability: 0.197
[19]; first compound 0.04 µM
  relative viability: 0.627
[19]; first compound 0.1265 µM
  relative viability: 0.605
[19]; first compound 0.4 µM
  relative viability: 0.463
[19]; first compound 1.265 µM
  relative viability: 0.322
[19]; first compound 4 µM
  relative viability: 0.221
